In assay [1] the target is Serine/threonine-protein kinase PAK 3 (Homo sapiens, UniProt O75914). Nature of the assay: Inhibition of PAK3-mediated MEK1 phosphorylation at Ser298 in human EBC1 cells after 2 hrs by HTRF assay. The note with it: pooled result: one value given for 3 cell lines, strains, targets or settings. The assay is classed as cell-based.
In assay [2] the target is Serine/threonine-protein kinase PAK 1 (Homo sapiens, UniProt Q13153). Nature of the assay: Inhibition of human recombinant GST-tagged PAK1 kinase domain-mediated 5FAM-RRRLSFAEPG phosphorylation expressed in Sf9 cells preincubated for 10 mins prior to substrate addition measured after 30 mins by microfluidic mobility shift assay.
Sequence of Serine/threonine-protein kinase PAK 1 (Q13153 whole entry, the tested form may be a part): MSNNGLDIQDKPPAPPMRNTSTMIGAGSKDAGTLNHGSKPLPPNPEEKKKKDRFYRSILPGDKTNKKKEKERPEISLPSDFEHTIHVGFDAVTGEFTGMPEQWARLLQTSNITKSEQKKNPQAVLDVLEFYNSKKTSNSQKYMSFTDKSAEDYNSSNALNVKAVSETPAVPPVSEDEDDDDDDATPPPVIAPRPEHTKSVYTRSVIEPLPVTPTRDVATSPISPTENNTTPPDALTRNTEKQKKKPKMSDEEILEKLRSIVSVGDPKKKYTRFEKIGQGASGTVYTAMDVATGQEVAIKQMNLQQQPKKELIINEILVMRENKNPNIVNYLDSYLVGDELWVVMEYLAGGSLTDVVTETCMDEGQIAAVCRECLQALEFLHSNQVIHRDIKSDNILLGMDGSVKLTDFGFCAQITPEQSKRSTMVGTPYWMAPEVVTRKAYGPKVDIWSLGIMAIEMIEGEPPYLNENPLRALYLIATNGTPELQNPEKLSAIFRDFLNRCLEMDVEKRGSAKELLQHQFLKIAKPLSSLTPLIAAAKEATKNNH

Sequence of Serine/threonine-protein kinase PAK 3 (O75914 whole entry, the tested form may be a part): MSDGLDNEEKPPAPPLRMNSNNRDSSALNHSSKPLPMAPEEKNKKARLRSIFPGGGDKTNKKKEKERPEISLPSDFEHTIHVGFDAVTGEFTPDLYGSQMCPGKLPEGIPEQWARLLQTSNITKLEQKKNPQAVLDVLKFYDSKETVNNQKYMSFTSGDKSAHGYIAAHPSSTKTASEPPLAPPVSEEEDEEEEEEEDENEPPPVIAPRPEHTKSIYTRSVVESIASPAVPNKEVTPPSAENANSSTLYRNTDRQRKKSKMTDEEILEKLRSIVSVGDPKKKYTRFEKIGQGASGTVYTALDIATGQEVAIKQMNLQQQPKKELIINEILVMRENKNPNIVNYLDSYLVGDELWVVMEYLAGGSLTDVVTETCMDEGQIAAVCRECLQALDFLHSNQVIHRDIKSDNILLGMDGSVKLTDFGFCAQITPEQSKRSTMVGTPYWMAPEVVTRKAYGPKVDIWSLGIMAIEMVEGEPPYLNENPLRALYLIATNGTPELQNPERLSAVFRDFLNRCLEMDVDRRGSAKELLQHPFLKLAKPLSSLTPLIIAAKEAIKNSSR

In the case of `C[C@H](Nc1nccc(Nc2cc(C3CC3(F)F)[nH]n2)n1)c1ccc2[nH]cnc2c1` (stereo not given in full), half-maximal inhibition in assay [1] (IC50) required 244 nM. For the same compound, in assay [2], the Ki is 5.13 nM. `C[C@H](Nc1nccc(Nc2cc(C3CCC3)[nH]n2)n1)c1ccc2[nH]ccc2c1`: in assay [1], the IC50 came out at 133 nM. Same read-out and setting: with `CC(CO)N(Cc1cc(F)cc2[nH]ncc12)c1nccc(Nc2cc(C3CC3)[nH]n2)n1` (stereo not given) the figure was 70.8 nM; with `COCCN(Cc1cc(F)cc2[nH]ncc12)c1nccc(Nc2cc(C3CC3)[nH]n2)n1`, 64.1 nM.

In general, IC50 refers to the concentration needed to halve the response being measured. High values mean weaker potency, low ones greater potency. In general, Ki refers to a dissociation constant, usually derived from enzyme kinetics or from competition with a known ligand.
